Source: patent US20090209620A1, “Direct Reversal Of The Suppressive Function Of CD4+Regulatory T Cells Via Toll-Like Receptor 8 Signaling” (priority 2005, published 2009)
Entries after “also recorded” stand apart in the source; their conditions may differ. In the oligonucleotide strings, read from the 5' end, every base follows the letter of its sugar. An asterisk marks phosphorothioate; unmarked linkages are phosphodiester. Other units and linkages are bracketed, terminal groups are in braces. A string of capitals states the bases alone. d = 2'-deoxy (DNA)

Experiments:
[1] = test system: 586mel human tumor cells; assay: Human 586mel tumor model in Rag1-/- mice with adoptive transfer of TIL586 and Treg102 cells; assay type: in vivo; conditions: 586mel s.c. day 0; CD8+ TIL586 plus Treg102 cells with oligonucleotide on day 3; n=6 mice per group
Description: Human 586mel tumor cells (5×106) in 100 μl of buffered saline were subcutaneously injected into Rag1^−/− mice (lacking T and B cells) or Rag 2 ^−/− γC ^−/− mice (lacking T, B and NK cells) on day 0. Tumor-specific CD8^+ TIL586 cells (2.5×107), which recognize and kill 586mel cells, were injected intravenously on day 3 with or without Treg102 cells (3×106) pretreated with Poly-G10 or Poly-T10. Tumor size was measured with calipers every 2-3 days. Tumor volume was calculated on the basis of two-dimensioned measurements. Tumor growth curves were compared with the Wilcoxon rank-sum test.
The data in FIG. 4A-B confirms that TLR8 serves as a receptor for synthetic guanosine containing oligonucleotides and natural ssRNA40 and ssRNA33 ligands derived from HIV-1 virus, and that its activation in endosomes by synthetic DNA or ssRNA ligands triggers a signaling pathway that can reverse the suppressive function of Treg cells. To study the guanosine containing oligonucleotide induced reversal of Treg cell function in vivo, a human tumor model was established by subcutaneously injecting 586mel human tumor cells into Rag1^−/− (T and B cell deficient) mice. […] Tumor volumes were measured and presented as mean±SD (n=6 mice per group). P value was determined between groups as indicated. […]

[2] = test system: Treg102 cells; assay: Reversibility of siRNA-transduced Treg102 cells by Poly-G10 (functional proliferation assay); assay type: cell-based, human
Text: Several siRNA sequences (19 nucleotides) for each gene were selected with use of computer-assisted programs. Oligonucleotides containing a siRNA sequence, 8 nucleotide spacers, and a polyT terminator sequence were annealed and then cloned into the HapI and XhoI sites of GFP-expressing pLentilox3.7 vector using methods well known in the art (See, e.g., D. A. Rubinson et al., Nat. Genet. 33, 401-6 (2003)). siRNA was under the control of a U6 promoter. The following DNA sequences used to construct siRNAs for IRAK4, MyD88, and TLR7, 8 and 9, were effective in silencing their corresponding genes:
5×10^6 293T cells were pre-seeded onto 100-mm dishes and transfected with 12 μg siRNA lentiviral DNA, 12 μg VSV-G plasmid DNA and 12 μg packaging viral CMV delta 8.9 plasmid, using Lipofectamine 2000. After the addition of fresh culture medium 8 h later, the cells were cultured for an additional 2-3 days. Viral supernatants were harvested, passed through a […] filter and concentrated by ultracentrifugation at 20,000 rpm for 2 h. Virus pellets were resuspended in a small volume of medium, and viral titers were determined by infecting 293T cells with serially diluted doses of virus. For transduction of T cells, T cells (2×106 ) were first activated by OKT3 (2 ug/ml)-coated plates and then were mixed with the concentrated lentiviral supernatant with a multiplicity of infection (MOI) of 10-15 in a total volume of 0.5 ml T cell medium containing 8 ug/ml polybrene (Sigma), and then span at 1000×g for 1 h at room temperature. After 16 h of incubation, 0.5 ml of T cell medium was added to each well. Forty-eight hours later, the T cells were transduced again with the same concentrated viral supernatants. Transduction efficiency was analyzed at 3 or 4 days post-transduction, and the cells were sorted into GFP^+and GFP^−cells with a FACS ARIA sorter. The sorted cells (GFP^+and GFP^−) and untransduced Treg cells were then used to determine their reversibility by Poly-G10 in functional proliferation assays.
The current model of TLR signaling pathways predicts that TLR1, 2, 5, 6, 7, 8, and 9 use MyD88 as their sole receptor-proximal adaptor to transduce signals, TLR3 uses interferon-regulated factor 3 (IRF3) for the production of IFN-α in response to pathogen recognition, while TLR4 is linked to both MyD88-dependent and MyD88 independent pathways. Since MyD88 is important for the signaling activities of most TLRs, it stood to reason that its dependent pathway, in which IRKA4 transduces signals from MyD88 to TRAF6 and other downstream molecules, would likely be involved in TLR signaling initiated by guanosine-containing oligonucleotides. Four or five eGFP-expressing lentiviral constructs containing U6-driven siRNAs were made for each gene and were tested their abilities to specifically knock down their respective target proteins. In FIG. 3A, the efficiency of knock down by siRNA was determined by Western blot analysis. Both IRAK4 and MyD88 were tagged with a FLAG epitope, and detected by anti-FLAG antibody (M2). 293T cells transfected with either FLAG-IRAK4 or FLAG-MyD88 served as positive controls, while nontranseffected 293T cells were negative controls. The amount of β-actin in each lane served as loading controls for the samples. […] Treg102 cells were next transduced with an IRAK4 siRNAl lentivirus. After 3 days in culture, they were sorted by FACS into transduced (GFP^+) and untransduced (GFP^− control) Treg cell populations (FIG. 3B). The purity of GFP^+ and GFP^− cells was confirmed by FACS analysis. […] This notion was further supported by experiments in which Treg102 cells were transduced with MyD88 siRNAs. […] For FIG. 3C, uninfected parental Treg108 cells and Poly-T10 oligonucleotides served as controls. Data are presented as means±SD and represent results from three independent experiments. Similar results were obtained with Treg164 cell lines. […]

Poly-G10: guanosine oligonucleotide with protected phosphorothioate backbone (DNA dG*dG*dG*dG*dG*dG*dG*dG*dG*dG)
tumor growth / antitumor immunity [1]: enhances antitumor immunity in vivo; also recorded: tumor growth was not detected during the first 42 days
reversibility of suppression by Poly-G10 ([2]; IRAK4 siRNA-transduced (GFP+) Treg102 cells): could not be reversed
reversibility of suppression by Poly-G10 ([2]; MyD88 siRNA-transduced (GFP+) Treg102 cells): completely lost their ability to respond
reversibility of suppression by Poly-G10 ([2]; TLR7 siRNA or TLR9 siRNA-transduced (GFP+) Treg cells): retained the same reversible suppressive function
reversibility of suppression by Poly-G10 ([2]; TLR8 siRNA-transduced (GFP+) Treg102 cells): could not be reversed
reversibility of suppression by Poly-G10 ([2]; Treg cells transduced with control siRNA virus): Neither the suppressive activity nor the reversibility of the suppression was affected
reversibility of suppression by Poly-G10 ([2]; untransduced (GFP-) Treg102 cells): reversed as readily as the parental Treg102 cells
